Paper PMC8776337, “Peptides Derived from Vascular Endothelial Growth Factor B Show Potent Binding to Neuropilin‐1” (Chembiochem, 2021)
Several values for one entry are separate records, joined by “and”; a condition that tells them apart may be missing. Identical values can stand only once. Like-named read-outs stand apart in the source and are kept apart here. Positions of bridges follow the written chain, without caps; N, C: chain ends. Residues, ends and D or L forms follow the SMILES beside them. No end group written: not given here. *: point of attachment. Palmitoyl = CCCCCCCCCCCCCCCC(=O)*; Hpt = not defined here

Key:
NRP1‐b1 = molecular target: T1, NRP1‐b1 (Homo sapiens, UniProt O14786); assay: SPR binding of peptides to immobilised NRP1-b1; settings: for Receptor occupancy: immobilised NRP1-b1
T1 construct: the immobilized b1 domain of NRP1 (NRP1‐b1); poly-histidine (TEV-cleavable) (cleaved yes); made in house; host or cells: E. coli Rosetta (DE3)
T1 sequence (O14786 275-424 limits assumed): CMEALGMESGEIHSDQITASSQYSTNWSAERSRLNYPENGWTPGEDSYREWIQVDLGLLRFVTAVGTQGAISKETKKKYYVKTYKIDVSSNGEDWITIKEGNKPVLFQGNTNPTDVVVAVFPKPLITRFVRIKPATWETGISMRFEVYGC
From the text: We then designed four additional peptides with added lipid chains (Figures 3 and 4). We investigated the effect of lipidation on the N‐terminus (MGC0171 and MGC0174) and on the side chain of a lysine in close proximity to the C‐terminus (MGC0172 and MGC0173) as shown (Figure 5). For the SPR analysis of the lipidated peptides we fitted data to a two‐state reaction model to account for the nonspecific binding of the palmitoyl side chains. Since the model assumes two binding events it provides two association (k a) and dissociation (k d) rates, and the overall equilibrium dissociation constant is calculated using the equation: KD=KD1(1+KD2), in which KD1 and KD2 are obtained as […]. The inverse of the dissociation rate corresponds to the residence time. […] The lipidated peptides were also tested for inhibition of VEGF‐A165 binding to NRP1 in a cell‐based assay (Figure 8).
Surface plasmon resonance: SPR measurements were performed using either Biacore T200 or Biacore 4000 at a constant temperature of 25 °C. All sensor chips, stock buffers, and immobilisation reagents were purchased from GE Healthcare/Cytvia and were prepared according to the manufacturer's instructions.
Chip preparation: PBS containing 0.05 % surfactant P20 was used as the running buffer during immobilisation. Proteins were immobilised onto a CM5 chip using random amine coupling following a standard procedure using the conditions specified in Table 2. A flow cell upstream of the treated flow cell was used as a reference which allowed removal of non‐specific binding to the chip.
Kinetic measurements of peptides: Peptides were injected over immobilized NRP1‐b1 for 60 s, followed by 120 or 180 s dissociation. The surface was regenerated with 1 M NaCl between injections. The SPR response curves were fit to a binding model to obtain association (ka ) and dissociation (kd ) rates which were then converted into equilibrium dissociation constant (KD ) and residence time. For a 1 : 1 binding model […] and for a two‐state binding model KD=K1(1+K2). Residence time was calculated as 1/kd .

[1] = Peptide stability in mouse plasma; assay type: in vitro ADME; settings: mouse plasma pH 7.4, 37 °C, LC-MS/MS, triplicate (n=1); for Stability in mouse plasma (in words): 10 μM, 0.24 % DMSO, 0, 5, 15, 30, 60, 120 min
Experimental: Figure 9 Stability of VEGF‐B167 lipidated peptides in mouse plasma determined by MSMS analysis. The stability of the peptides is shown relative to the control eucatropine. Samples were analysed in triplicate (n=1).
Peptide stability in mouse plasma: Mouse plasma stability tests were performed by Cyprotex. In brief, peptides were incubated with mouse plasma (adjusted for pH 7.4, 37 °C) to a final concentration of 10 μM and incubation volume of 500 μL (0.24 % DMSO). After the incubation period (0, 5, 15, 30, 60, and 120 min), the reactions were stopped by transferring 50 μL of incubate to 150 μL acetonitrile containing internal standard. Plasma proteins were precipitated out by centrifuging at 3,000 rpm for 45 min at 4 °C. The supernatant was diluted 1 : 1 with water and analysed by LC‐MS/MS.

[2] = molecular target: T2, bt‐VEGF‐A165 binding to NRP1 in HUVEC cells (Homo sapiens, UniProt O14786); assay: Cell based binding assay, inhibition of bt-VEGF-A165 binding to NRP1; settings: for IC50: 4 °C, 2 h, streptavidin-horseradish peroxidase detection; for HS (of the inhibition curve of bt‐VEGF‐A165 binding to NRP1): HUVEC cells
T2 construct: expressed in transfected cells
T2 sequence (O14786 22-923): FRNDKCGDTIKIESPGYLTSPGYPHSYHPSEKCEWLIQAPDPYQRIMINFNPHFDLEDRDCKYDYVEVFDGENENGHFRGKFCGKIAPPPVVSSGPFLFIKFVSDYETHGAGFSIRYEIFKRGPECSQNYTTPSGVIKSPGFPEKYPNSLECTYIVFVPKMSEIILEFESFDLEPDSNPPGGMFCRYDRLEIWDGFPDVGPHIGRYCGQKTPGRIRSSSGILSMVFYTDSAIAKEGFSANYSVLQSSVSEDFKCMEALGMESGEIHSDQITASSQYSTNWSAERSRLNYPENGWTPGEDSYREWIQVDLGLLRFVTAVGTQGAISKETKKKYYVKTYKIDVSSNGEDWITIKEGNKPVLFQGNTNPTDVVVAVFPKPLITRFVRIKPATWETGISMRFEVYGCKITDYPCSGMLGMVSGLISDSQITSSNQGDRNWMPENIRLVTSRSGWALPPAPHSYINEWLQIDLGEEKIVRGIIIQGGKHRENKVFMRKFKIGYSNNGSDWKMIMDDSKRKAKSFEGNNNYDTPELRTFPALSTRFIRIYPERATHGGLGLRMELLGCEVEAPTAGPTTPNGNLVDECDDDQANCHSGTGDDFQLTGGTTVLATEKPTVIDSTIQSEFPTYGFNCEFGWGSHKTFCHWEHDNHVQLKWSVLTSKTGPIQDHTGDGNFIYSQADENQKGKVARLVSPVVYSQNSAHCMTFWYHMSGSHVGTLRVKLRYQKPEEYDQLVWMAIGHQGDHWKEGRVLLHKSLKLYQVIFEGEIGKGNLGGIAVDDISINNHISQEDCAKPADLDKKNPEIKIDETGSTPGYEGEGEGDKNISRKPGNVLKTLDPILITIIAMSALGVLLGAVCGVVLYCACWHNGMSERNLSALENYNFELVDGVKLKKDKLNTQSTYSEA
Experimental: A) N‐terminal palmitoyl VEGF‐B167 derived peptide MGC0174. B) Lysine palmitoyl peptide MGC0173. C) N‐terminal palmitoyl VEGF‐A165 derived peptide MGC0171. D) Lysine VEGF‐A165 palmitoyl peptide MGC0172.
Cell based binding assay for bt‐VEGF binding to NRP1‐b1: A flat‐bottomed 96 well plate was coated with 100 μL 10 μg/mL Poly‐D‐lysine (110 μL in 10890 μL PBS) and incubated for 1 hour at R.T. DU145 cells were seeded at a concentration of 20,000 DU145 cells/well in DMEM with 10 % FBS and incubated for 4 hours. Cells were then infected with 0.3 μL per well of adenovirus expressing NRP1 (stock at 1×1012 vp/mL) and incubated for 40 hours. The media was removed followed by washing cells twice in 200 μL of PBS per well. The plate was placed on ice and 50 μL of binding medium was added per well for total binding. Next, 50 μL of 100‐fold excess (100×btVEGF‐A165) of unlabelled‐VEGF (diluted in binding medium) was added per well for non‐specific binding. Peptides (50 μL) at the indicated concentrations were diluted in binding medium and added to specified wells. bt‐VEGF (50 μL of 4 nM; diluted in binding medium) was added per well for both total and non‐specific binding and samples. The plate was incubated at 4 °C for 2 hours. The plate was then placed on ice and the medium was removed followed by gently washing the cells 3 times in 200 μL of PBS per well.
Streptavidin‐horseradish peroxidase (100 μL; dilute to the working concentration specified on the vial label using PBS+1 % BSA=1 : 200) was added to each well. The plate was sealed and incubated for 30 minutes at room temperature. Three more washes with 200 μL PBS were done. Then, 100 μL of substrate solution was added to each well (protected from light). Colour Reagent A and B were mixed together in equal volumes within 15 minutes of use. The plate was sealed and incubated for 20 minutes at room temperature. Stop solution (50 μL) was added to each well ensuring even mixing. The plate was read using Tecan Genios plate reader using a 450 nm cut‐off filter and also with a reference 595 nm cut‐off filter. Nonspecific binding was determined in the absence of NP‐1 coated on the microplate.

[3] = molecular target: T3, b1 domain of neuropilin‐1 (NRP1‐b1) (human, UniProt O14786 273-427); assay: SPR; NRP1-b1 immobilised on a CM5 chip by random amine coupling; peptides injected for 60 s, 120 or 180 s dissociation; 25 °C; regeneration with 1 M NaCl; kinetic fit, 1:1 model (MGC0122, MGC0123, MGC0124) or two-state model (MGC0171, MGC0172, MGC0173, MGC0174); settings: both partners purified
T3 construct: neuropilin-1, human, b1 domain; also called NRP1‐b1 domain; NRP1 b1 domain; source: E. coli Rosetta (DE3), purified (HisTrap, TEV cleavage, Superdex 75, SP FF ion exchange)
T3 sequence: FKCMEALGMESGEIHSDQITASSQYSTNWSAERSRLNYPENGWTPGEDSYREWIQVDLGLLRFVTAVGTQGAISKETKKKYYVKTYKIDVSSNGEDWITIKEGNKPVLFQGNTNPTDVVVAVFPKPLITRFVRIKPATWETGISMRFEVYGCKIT

[4] = SPR, immobilised NRP1-b1, 25 °C, two-state model, lipidated peptides, read-out: Second residence time calculated from two‐state model (converted)
[5] = read-out: Residence time (1/kd)
[6] = IC50, cell‐based activity (HUVECs), inhibition of bt‐VEGF‐A165 binding to NRP1, bt-VEGF-A165 4 nM

`CCCCCCCCCCCCCCCC(=O)NCCCC[C@H](NC(=O)[C@H](CCCNC(=N)N)NC(=O)[C@@H]1CSSC[C@@H]2NC(=O)[C@H](CCCNC(=N)N)NC(=O)[C@H](CC(C)C)NC(=O)[C@H](Cc3ccccc3)NC(=O)[C@H](CO)NC(=O)[C@H](CCCNC(=N)N)NC(=O)[C@H](CCCNC(=N)N)NC(=O)[C@H](CCCNC(=N)N)NC(=O)[C@@H](NC(=O)[C@H](CCCNC(=N)N)NC(C)=O)CSSC[C@H](NC(=O)[C@H]([C@@H](C)O)NC(=O)[C@H](CC(=O)O)NC(=O)[C@@H]3CCCN3C(=O)[C@H](CC(N)=O)NC(=O)[C@H](CC(C)C)NC(=O)[C@H](CCC(=O)O)NC(=O)[C@H](CC(C)C)NC(=O)CNC(=O)[C@H](CCCNC(=N)N)NC(=O)CNC(=O)[C@H](CCC(N)=O)NC2=O)C(=O)N[C@@H](CCCNC(=N)N)C(=O)N1)C(=O)N[C@@H](CC(C)C)C(=O)N[C@@H](CCCNC(=N)N)C(=O)N[C@@H](CCCNC(=N)N)C(=O)O` [MGC0173] (Ac-RCRRRSFLRCQGRGLELNPDTCRCRK(Palmitoyl)LRR-OH; disulfide 2-22, 10-24) showed a Kd (NRP1‐b1) of 130 ± 30 nM, a Receptor occupancy (NRP1‐b1; SPR) of 10±1% and a residence time (NRP1‐b1; [4]) of 2.69 min. The residence time (NRP1‐b1; [5]) was 0.0767 min, the “Stability in mouse plasma (in words)” value [1] was “maintained much better levels throughout the course of the experiment” and the half-life at 10 μM ([1]; 0.24 % DMSO, 0-120 min) was 51 min. The IC50 [2, 6] was 2000 nM and the “HS (of the inhibition curve of bt‐VEGF‐A165 binding to NRP1)” value ([2]; bt-VEGF-A165 4 nM) was 1.8.

In the case of `CC1CC(OC(=O)C(O)c2ccccc2)CC(C)(C)N1C` (stereo not drawn) [eucatropine, reference compound], the “Stability in mouse plasma (in words)” value [1] is reported as “degraded within literature parameters”.

With `CCCCCCCCCCCCCCCC(=O)N[C@@H](CCCNC(=N)N)C(=O)N[C@H]1CSSC[C@@H]2NC(=O)[C@H]([C@@H](C)O)NC(=O)[C@H](CC(=O)O)NC(=O)[C@@H]3CCCN3C(=O)[C@H](CC(N)=O)NC(=O)[C@H](CC(C)C)NC(=O)[C@H](CCC(=O)O)NC(=O)[C@H](CC(C)C)NC(=O)CNC(=O)[C@H](CCCNC(=N)N)NC(=O)CNC(=O)[C@H](CCC(N)=O)NC(=O)[C@H](CSSC[C@@H](C(=O)N[C@@H](CCCNC(=N)N)C(=O)N[C@@H](CCCCN)C(=O)N[C@@H](CC(C)C)C(=O)N[C@@H](CCCNC(=N)N)C(=O)N[C@@H](CCCNC(=N)N)C(=O)O)NC(=O)[C@H](CCCNC(=N)N)NC2=O)NC(=O)[C@H](CCCNC(=N)N)NC(=O)[C@H](CC(C)C)NC(=O)[C@H](Cc2ccccc2)NC(=O)[C@H](CO)NC(=O)[C@H](CCCNC(=N)N)NC(=O)[C@H](CCCNC(=N)N)NC(=O)[C@H](CCCNC(=N)N)NC1=O` [MGC0174] (Palmitoyl-RCRRRSFLRCQGRGLELNPDTCRCRKLRR-OH; disulfide 2-22, 10-24) the Kd (NRP1‐b1) was 330 ± 50 nM, the Receptor occupancy (NRP1‐b1; SPR) was 47±3% and the residence time (NRP1‐b1; [4]) was 4.46 min. For the same molecule, the residence time (NRP1‐b1; [5]) was 0.248 min, the “Stability in mouse plasma (in words)” value [1] was “quickly degraded to low levels after 15 min” and the IC50 [2, 6] was 319 nM and 300 nM. The “HS (of the inhibition curve of bt‐VEGF‐A165 binding to NRP1)” value ([2]; bt-VEGF-A165 4 nM) was 1.9.

With `CCCCCCCCCCCCCCCC(=O)NCCCC[C@H](NC(=O)[C@H](CC(=O)O)NC(=O)[C@@H]1CSSC[C@@H]2NC(=O)[C@H](CCCNC(=N)N)NC(=O)[C@H](CO)NC(=O)[C@H](CC(=O)O)NC(=O)[C@H]([C@@H](C)O)NC(=O)[C@H](CC(N)=O)NC(=O)[C@H](CCCCN)NC(=O)[C@@H](NC(=O)[C@H](CO)NC(C)=O)CSSC[C@H](NC(=O)[C@H]([C@@H](C)O)NC(=O)[C@H](CCCNC(=N)N)NC(=O)[C@H](CCC(=O)O)NC(=O)[C@H](CC(N)=O)NC(=O)[C@H](CC(C)C)NC(=O)[C@H](CCC(=O)O)NC(=O)[C@H](CC(C)C)NC(=O)[C@H](CCC(N)=O)NC(=O)[C@H](CCCNC(=N)N)NC(=O)[C@H](C)NC(=O)[C@H](CCCCN)NC2=O)C(=O)N[C@@H](CCCNC(=N)N)C(=O)N1)C(=O)N1CCC[C@H]1C(=O)N[C@@H](CCCNC(=N)N)C(=O)N[C@@H](CCCNC(=N)N)C(=O)O` [MGC0172] (Ac-SCKNTDSRCKARQLELNERTCRCDK(Palmitoyl)PRR-OH; disulfide 2-21, 9-23) the Receptor occupancy (NRP1‐b1; SPR) was 22±1%, the residence time (NRP1‐b1; SPR, immobilised NRP1-b1, 25 °C, 1:1 model, or first residence time of the two-state model, read-out: Residence time (1/kd) (converted)) was 0.123 min and the residence time (NRP1‐b1; [4]) was 1.99 min. For the same molecule, the Kd (NRP1‐b1; SPR, peptide injected 60 s over NRP1-b1 immobilised on CM5 chip, 25 °C, 1:1 model for MGC0122/0123/0124, two-state model for lipidated peptides, read-out: KD, SPR binding to NRP1‐b1) was 1220 ± 250 nM, the IC50 ([2]; bt-VEGF-A165 4 nM, read-out: IC50, cell‐based activity (HUVECs), inhibition of bt‐VEGF‐A165 binding to NRP1) was 10400 nM and the “HS (of the inhibition curve of bt‐VEGF‐A165 binding to NRP1)” value ([2]; bt-VEGF-A165 4 nM) was 1.9.

B1: MGC0122 (peptide)
peptide: Hpt-DRAATPHHRPQPR
modifications: reading uncertain; also: printed as Hpt‐DRAATPHHRPQPR
notes: VEGF-B186, human, the C-terminal stretch of the proteolytically processed form, ending in arginine; Only the C-terminal QPR is ordered in the crystal structure; also called VEGF‐B derived peptide MGC0122; source: synthetic peptide; bought: Peptide Protein Research (PeptideSynthetics), >95 % purity by HPLC
Molecule B1 has a Kd [3] of 9550 ± 170 nM.

B2: MGC0123 (peptide)
chain: {6‑heptynoyl}-RCRRRSFLRCQGRGLELNPDTCRCRKLRR
modifications: disulfide (positions not given here); also: cyclised by disulphide, Cys pairing not given here
In the case of B2, the Kd [3] is reported as 390 ± 90 nM.
